# Laboratory results published in PMC10518717, “High-Throughput Screening and Proteomic Characterization of Compounds Targeting Myeloid-Derived Suppressor Cells” (Molecular & Cellular Proteomics : MCP, 2023).
# Tests used:
# [1] = test system: A594 cells; experiment: CellROX-based detection of ROS levels; type: cell-based; details: 48 h treatment (compound 2 7.8 μM, N-acetyl-cysteine 300 μM), then 200 μM tert-butyl hydroperoxide 2 h; compared to compound 3 10 μM
# Method: A594 cells were maintained in Fluorobrite DMEM (Thermo Fisher Scientific) supplemented with GlutaMAX (Thermo Fisher Scientific) and 10% fetal bovine serum (PAN Biotech). Cells were seeded onto a 24-well microplate (Ibidi) and treated with DMSO, 7.8 μM compound 2 (3x EC50), 10 μM compound 3, or 300 μM N-acetyl-cysteine for 48 h. After the treatment, cells were incubated with 200 μM tert-butyl hydroperoxide (Sigma) for 2 h to stimulate ROS production. Then, cells were stained with CellROX deep red (Thermo Fisher Scientific) following the manufacturer’s guidelines. CellROX deep red signal was measured on a Leica DMI 6000 B epifluorescent microscope with a Cy5 filter set. Mean signal intensity per cell was determined from >100 cells per condition from three independent treatments.
# For the CellROX assay, three independent treatments were conducted. From each, the mean signal intensity per cell was determined for >100 cells per condition. The statistical significance was calculated by one-way ANOVA followed by a post hoc Tukey’s multiple comparisons test using GraphPad Prism (v.8.3.0).
# [2] = biological target: T1, Arginase (Mus musculus, UniProt Q61176); experiment: Arginase activity assay (Arginase Activity Assay Kit) in cell lysates; type: biochemical; details: NUP-MDSC lysates; titrated amounts of inhibitor
# T1 construct: endogenous in cells; host or cells: mouse NUP cells / NUP-MDSC (lysate)
# T1 sequence (Q61176 1-323): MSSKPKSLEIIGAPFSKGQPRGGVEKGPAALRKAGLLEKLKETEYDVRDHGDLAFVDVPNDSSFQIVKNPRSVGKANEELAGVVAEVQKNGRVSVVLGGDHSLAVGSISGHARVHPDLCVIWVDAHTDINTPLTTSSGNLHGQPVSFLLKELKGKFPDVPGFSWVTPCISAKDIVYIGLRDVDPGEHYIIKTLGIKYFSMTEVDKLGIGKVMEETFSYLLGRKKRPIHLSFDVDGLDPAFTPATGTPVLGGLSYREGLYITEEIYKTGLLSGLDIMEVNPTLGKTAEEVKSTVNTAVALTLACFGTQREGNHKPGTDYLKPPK
# Method: Arginase catalyzes the conversion of arginine to urea and ornithine. The urea produced specifically reacts with the assay substrate to generate a colored product, proportional to the arginase activity. Cells were washed with PBS and lysed for 10 min in 10 mM Tris–HCl, pH7.4 containing protease inhibitors and 0.4% (w/v) Triton X-100. Lysates were centrifuged at 13,000g for 10 min, and supernatant was used for analysis. Arginase activity was analyzed using the Arginase Activity Assay Kit (Sigma, MAK112) according to manufacturer’s protocol. Lysates were untreated or treated with titrated amounts of the arginase inhibitor (3R,4S)-3-amino-1-[(2S)-2-aminopropanoyl]-4-(3-boronopropyl)pyrrolidine-3-carboxylic acid. Absorbance (430 nm) was analyzed in an Infinite M1000 Pro (Tecan) plate reader after 120 min of incubation. Arginase activity was determined as follows: arginase activity = absorbance-blank/(urea standard-H2O Control)∗(1 mM∗reaction volume ∗10³/(incubation time in min∗sample volume (μL))). One unit of arginase is the amount of enzyme that will convert 1.0 μmole of L-arginine to ornithine and urea per minute at pH 9.5 and 37 °C.
# [3] = test system: NUP-MDSC; experiment: Global proteome expression profiling of compound-treated NUP-MDSC (TMT LC-MS/MS); type: cell-based, mouse; details: 72 h; for log2 FC Moce_300/DMSO: 300 nM
# Method: After treatments, medium was removed, cells were washed twice with PBS, and the cell pellets were further subjected to proteomic sample preparation.
# The cell pellet was reconstituted in 2% SDS in 50 mM Tris–HCl pH 7.5 and lysed by heating to 95 °C for 10 min. One microliter of 100% TFA was added to each sample to hydrolyze DNA, and the pH was subsequently adjusted to 8.5 with 3 M Tris solution. Disulfide bonds were reduced with 10 mM DTT for 45 min at 37 °C, followed by alkylation of cysteines with 55 mM CAA for 30 min at room temperature. Prior to tryptic digestion, the detergent was removed from lysates by SP3 cleanup on an Agilent BRAVO system (Agilent Technologies), following the protocol first described by Hughes et al. ([34]). Briefly, lysate containing 200 μg of protein was mixed with SP3 beads, and proteins were precipitated onto a 50:50 mixture of Sera-Mag Speed Bead types A and B (Thermo Fisher Scientific) in 58% acetonitrile. Beads were washed three times with 80% ethanol in water and once with acetonitrile. Tryptic digest was performed in 100 μl of digestion buffer (2 mM CaCl2 in 25 mM Hepes, pH 8.5) with a 1:50 enzyme-to-protein ratio. Bead-precipitated proteins were digested at 37 °C overnight. On the next day, the supernatant of each sample was transferred to a new well and vacuum dried.
# Dried peptides were reconstituted in water and labeled with the respective TMT10plex-labeling reagent as described previously ([35]) with a protein to tandem mass tag (TMT) reagent ratio of 1:2. Labeled samples were pooled, vacuum dried, and reconstituted in 0.1% formic acid (FA) prior to desalting on SepPAC50 columns (waters corp.). Peptides were fractionated using a Dionex Ultra 3000 HPLC system with a Waters XBridge BEH130 C18 3.5 um 2.1 × 250 mm column as described previously ([36]). Ninety-six fractions were collected and pooled to 48. For the full proteome analysis, one fifth of each fraction was transferred to a new 96-well plate and both plates were vacuum dried. For the phosphopeptide analysis, dried peptides were reconstituted in 55 μl 0.1% TFA in 30% ACN, pooled from 48 to 12 fractions, and mixed with 70 μl priming buffer (0.1% TFA, 100% ACN). Phosphopeptides were enriched from each of the 12 fractions using Fe(III)-IMAC-NTA cartridges on the AssayMAP BRAVO (Agilent Technologies) platform as described previously ([36]). Phosphopeptides were eluted with 60 μl 1% ammonia, vacuum dried, and stored at −20 °C prior to LC-MS/MS analysis.
# The Fusion Lumos was operated in data-dependent acquisition and positive ionization mode. Samples were measured employing a MS3 method. In brief, full scan MS1 spectra were recorded in the orbitrap (OT) from 360 to 1560 m/z at 60,000 resolution using an automatic gain control (AGC) target value of 4e5 charges and a maximum injection time (maxIT) of 50 ms. Iontrap-MS2 spectra for peptide identification were acquired using higher energy collision dissociation (HCD) fragmentation with 32% normalized collision energy (NCE), an isolation window of 0.6 m/z, and an AGC target value of 1.2e4 charges. To obtain quantitative information on TMT reporter ions, each peptide precursor was fragmented again as for MS2 analysis followed by synchronous selection of the up to eight most intense peptide fragments in the iontrap ([37]) and further fragmentation via HCD using a NCE of 55%. The MS3 scan was recorded in the OT at 50,000 resolution (scan range 100–1000 m/z, isolation window of 1.2 m/z, AGC of 1e5 charges, maxIT of 86 ms). The cycle time was 1.2 s, and the dynamic exclusion lasted for 50 s.
# Peptide, protein, and phosphorylation site identification and quantification were performed with MaxQuant software (v. 1.6.3.3, https://www.maxquant.org/) with standard settings for reporter ion MS3 unless described otherwise ([39]). Isotope impurities of the TMT lot were specified to allow MaxQuant the automated correction of TMT intensities. […]
# [4] = biological target: T2, NUP-MDSC cell lysate (Mus musculus, UniProt Q8WUR0); experiment: Chemoproteomic competition pulldown assay (iCor/iEnt affinity matrix), proteome-wide; type: binding; details: protein 1600014C10Rik (Protein C19orf12 homolog)
# T2 construct: endogenous in cells; host or cells: mouse NUP-MDSC (lysate)
# T2 sequence (Q8WUR0 1-141): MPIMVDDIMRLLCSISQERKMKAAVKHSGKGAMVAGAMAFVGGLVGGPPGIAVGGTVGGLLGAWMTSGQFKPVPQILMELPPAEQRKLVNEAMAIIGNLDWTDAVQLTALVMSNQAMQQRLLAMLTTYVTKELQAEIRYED
# Description: (§1) Targets of the inhibitors were annotated manually.
# [5] = biological target: T3, NUP-MDSC cell lysate (Mus musculus, UniProt G5E8Z3); experiment: as above; type: binding; details: protein 2310050C09Rik (G5E8Z3)
# T3 construct: endogenous in cells; host or cells: mouse NUP-MDSC (lysate)
# T3 sequence (G5E8Z3 1-280): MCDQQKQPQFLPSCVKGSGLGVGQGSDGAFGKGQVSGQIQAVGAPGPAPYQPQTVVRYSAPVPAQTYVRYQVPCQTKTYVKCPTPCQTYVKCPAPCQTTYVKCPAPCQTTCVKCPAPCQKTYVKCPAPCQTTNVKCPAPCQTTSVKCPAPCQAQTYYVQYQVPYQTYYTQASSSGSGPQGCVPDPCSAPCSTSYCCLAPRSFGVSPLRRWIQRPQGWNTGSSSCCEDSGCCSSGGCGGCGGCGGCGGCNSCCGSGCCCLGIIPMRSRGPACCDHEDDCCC
# Description: as §1
smiles,measurement,setting,value
CC(=O)N[C@@H](CS)C(=O)O [N-acetyl-cysteine],CellROX Deep Red fluorescence (amount of ROS in a cell),[1],decreased significantly
"C[C@H](N)C(=O)N1C[C@H](CCCB(O)O)[C@](N)(C(=O)O)C1 [arginase inhibitor, (3R,4S)-3-amino-1-[(2S)-2-aminopropanoyl]-4-(3-boronopropyl)pyrrolidine-3-carboxylic acid]",arginase activity,[2],dose dependently decreased
Nc1ccccc1NC(=O)c1ccc(CNc2nccc(-c3cccnc3)n2)cc1 [mocetinostat],"protein expression of Il1a, Il1b, and Il1rn",[3]; 30 and 300 nM,dose-dependently upregulated
same,"protein level of Cxcr3, Ccl9, and Ccr5","[3]; 30 and 300 nM, dose-dependent manner",increased
same,log2 FC Moce_300/DMSO,[3]; protein Cask,-0.508
same,log2 FC Moce_300/DMSO,[3]; protein Hsf1,-0.2561
same,log2 FC Moce_300/DMSO,[3]; protein Inpp5j,0.2433
same,log2 FC Moce_300/DMSO,[3]; protein Magohb;Magoh,-0.03048
same,Intensity 10nM,[4]; Mocetinostat 10nM,53804000
same,LFQ intensity 10nM,[4]; Mocetinostat 10nM,30216000
same,Intensity 30nM,[4]; Mocetinostat 30nM,64537000
same,LFQ intensity 30nM,[4]; Mocetinostat 30nM,37744000
same,Intensity 100nM,[4]; Mocetinostat 100nM,59266000
same,LFQ intensity 100nM,[4]; Mocetinostat 100nM,38158000
same,Intensity 300nM,[4]; Mocetinostat 300nM,53823000
same,LFQ intensity 300nM,[4]; Mocetinostat 300nM,43828000
same,Intensity 1000nM,[4]; Mocetinostat 1000nM,51502000
same,LFQ intensity 1000nM,[4]; Mocetinostat 1000nM,40150000
same,Intensity 3000nM,[4]; Mocetinostat 3000nM,76226000
same,LFQ intensity 3000nM,[4]; Mocetinostat 3000nM,38853000
same,Intensity 30000nM,[4]; Mocetinostat 30000nM,39641000
same,LFQ intensity 30000nM,[4]; Mocetinostat 30000nM,39494000
same,Intensity 10nM,[5]; Mocetinostat 10nM,25441000
same,LFQ intensity 10nM,[5]; Mocetinostat 10nM,9384100
same,Intensity 30nM,[5]; Mocetinostat 30nM,13403000
same,LFQ intensity 30nM,[5]; Mocetinostat 30nM,6282200
same,Intensity 100nM,[5]; Mocetinostat 100nM,19942000
same,LFQ intensity 100nM,[5]; Mocetinostat 100nM,8726600
same,Intensity 300nM,[5]; Mocetinostat 300nM,13729000
same,LFQ intensity 300nM,[5]; Mocetinostat 300nM,7913100
same,Intensity 1000nM,[5]; Mocetinostat 1000nM,4275900
same,LFQ intensity 1000nM,[5]; Mocetinostat 1000nM,0
same,Intensity 3000nM,[5]; Mocetinostat 3000nM,53551000
same,LFQ intensity 3000nM,[5]; Mocetinostat 3000nM,32269000
same,Intensity 30000nM,[5]; Mocetinostat 30000nM,25441000
same,LFQ intensity 30000nM,[5]; Mocetinostat 30000nM,13756000
